Measured values published in patent publication US7972829B2, “Process for producing transglutaminase” (Ajinomoto Co., Inc., priority 1999, dated 2011).
Entries after “also recorded” stand apart in the source; their conditions may differ. Where two headings read alike, the source gives them in different places. *1 amine or outer side, *2 acyl side, *3 side chain or, on linkers, in order; H or OH if unused. Where a SMILES comes first, the peptide text is derived from it. Primed or numbered codes have the meaning given here. Where no end group is shown, it is not given here. [ ]: non-standard residue; d: D form. The star is where a group is joined. Sta = CC(C)C[C@H](N)[C@@H](O)CC(=O)O; pNA = O=[N+]([O-])c1ccc(N*)cc1; Suc = O=C(CCC(=O)[*:2])[*:1]; Isovaleryl = CC(C)CC(=O)*; code Z = not defined here; βNA = c1ccc2cc(N*)ccc2c1; Bz′ = not defined here; Cbz = O=C(OCc1ccccc1)*

Assays:
[1] = test system: proline specific peptidase (svPEP); assay: Substrate specificity of svPEP (cleaving activity on pNA-, βNA-conjugated peptides and peptides); type: biochemical, S. mobaraense IFO13819; settings: for relative activity (specificity of svPEP for peptide substrate): 20 mM sodium phosphate buffer pH 6.5, 37° C., 5 min, AAP-pNA = 100; for substrate recognition by svPEP (in words): cleavage at carboxyl terminal side of proline residue
[2] = test system: proline specific peptidase (svPEP); assay: Effects of inhibitors on the activity of proline specific peptidase (svPEP), Ala-Ala-Pro-pNA as substrate; type: biochemical, S. mobaraense IFO13819; settings: for inhibition of svPEP activity (in words): Ala-Ala-Pro-pNA as substrate
[3] = Transglutaminase activity by hydroxamate method; type: biochemical
[4] = Enzyme properties of svPEP (optimum pH, pH stability, optimum temperature, temperature stability); type: biochemical
Method: were used as a buffer, respectively. The enzyme was allowed to act on Ala-Ala-Pro-pNA as the substrate at 30° C. for 5 minutes. Relative activity of the enzyme in each buffer was calculated compared to the activity in 20 mM sodium phosphate buffer, pH6.5 as 100%. […] (iii) pH Stability
0.15 M GTA buffers (buffers composed of 3,3-dimethylglutaric acid, tris(hydroxymethyl)aminomethane, 2-amino-2-methyl-1,3-propanediol) ranging between pH 3 and pH10 were used. To 20 µl of purified enzyme solution, 40 μl of the buffer at each pH was added and the reaction mixtures were allowed to stand overnight at 4° C., then adjusted to pH 7.0 and the volume was made up to 120 μl. To 50 μl aliquots, Ala-Ala-Pro-pNA was added and the reaction was performed at 30° C. for 5 minutes. Relative amounts of substrate which the enzyme decomposed at each pH were considered to be the remaining activity compared to the activity of the enzyme as 100% when the enzyme was stored under the same condition as described above except for pH 7.0.
To 50 μl of purified enzyme solution, 0.5 ml of 20 mM sodium phosphate buffer (pH 6.5) was added and Ala-Ala-Pro-pNA was added up to 0.25 mM and the mixture was maintained at 20° C.-60° C. for 5 minutes to effect decomposition reaction. Relative amount of substrate which the enzyme decomposed was considered to be the relative activity at each temperature, compared to the amount of substrate decomposition at 25° C. as 100% activity.
To 50 μl of purified enzyme solution, 0.5 ml of 20 mM sodium phosphate buffer (pH 6.5) was added. The mixture was maintained at 4° C. or 20° C.-60° C. for 15 minutes and then cooled on ice. Ala-Ala-Pro-pNA was added up to 0.25 mM and the mixture was maintained at 30° C. for 5 minutes. The remaining activity was calculated assuming the activity of the enzyme which was treated at 4° C. to be 100%.

[5] = Isoelectric point of svPEP; type: physicochemical
[6] = compound 1 mM, 10 min room temperature, then Ala-Ala-Pro-pNA, 30° C., 5 min, activity without compound = 100%
[7] = compound 10 mM, 10 min room temperature, then Ala-Ala-Pro-pNA, 30° C., 5 min, activity without compound = 100%

Phe-Arg-Ala-Pro-pNA (FRAP-pNA)
relative activity (specificity of svPEP for peptide substrate) [1]: 49.0%
substrate recognition by svPEP (in words) [1]: preferably recognized

O=C(O)c1cc[c]([Hg][Cl])cc1 [p-Chloromercuribenzoic acid]
inhibition of svPEP activity (in words) [2]: inhibited to some extent
relative activity [2, 6]: 87.1%

c1cnc2c(c1)ccc1cccnc12 [1,10-Phenanthroline]
relative activity [2, 6]: 92.5%

Aminoethylbenzenesulfonylfluoride hydrochloride
inhibition of svPEP activity (in words) ([2]; hydrochloride): comparatively strong inhibition; also recorded: inhibited
relative activity ([2]; compound 4 mM, 10 min room temperature, then Ala-Ala-Pro-pNA, 30° C., 5 min, activity without compound = 100%): 59.9%

O=C[C@@H]1CCCN1C(=O)[C@@H]1CCCN1C(=O)OCc1ccccc1 [Z-Pro-Prolinal] (Cbz-Pro-Pro-aldehyde)
relative activity [2, 6]: 99.7%

Ala-Phe-Pro-pNA [AFP-pNA, p-nitroanilide peptide substrate for svPEP]
relative activity (specificity of svPEP for peptide substrate) [1]: 26.3%
substrate recognition by svPEP (in words) [1]: preferably recognized

O=S(=O)(F)Cc1ccccc1 [Phenylmethylsulfonylfluoride]
inhibition of svPEP activity (in words) ([2]; listed as phenyl methylsulfonylfluoride): comparatively strong inhibition
inhibition of svPEP activity (in words) ([2]; listed as phenylmethylsulfonyl fluoride): inhibited
relative activity [2, 6]: 39.7%

O=C[C@@H]1CCCN1C(=O)[C@@H]1CCCN1C(=O)OCc1ccccc1 [Z-Pro-(S)Prolinal] (Cbz-Pro-Pro-aldehyde)
relative activity [2, 6]: 105.8%

Ala-Ala-Pro-pNA [AAP-pNA, p-nitroanilide peptide substrate for svPEP]
relative activity (specificity of svPEP for peptide substrate) [1]: 100%
substrate recognition by svPEP (in words) [1]: preferably recognized

Z-GAP-βNA ({code Z}-Gly-Ala-Pro-βNA; reading uncertain; also: printed as Z-GAP-βNA) [β-naphtylamido peptide substrate for svPEP]
relative activity (specificity of svPEP for peptide substrate) [1]: 1.2%

O=C[C@@H]1CCCN1C(=O)[C@@H]1CCCN1C(=O)OCc1ccccc1 [Z-(S)Pro-(S)Prolinal] (Cbz-Pro-Pro-aldehyde)
relative activity [2, 6]: 111.2%

CC(C)CC(=O)N[C@H](C(=O)N[C@H](C(=O)N[C@@H](CC(C)C)[C@@H](O)CC(=O)N[C@@H](C)C(=O)N[C@@H](CC(C)C)[C@@H](O)CC(=O)O)C(C)C)C(C)C [Pepstatin] (Isovaleryl-VV[Sta]A[Sta]-OH)
relative activity [2, 6]: 165.7%

O=C(O)CN(CCN(CC(=O)O)CC(=O)O)CC(=O)O [EDTA]
relative activity [2, 7]: 105.2%

CC(C)C[C@H](NC(=O)[C@@H](O)[C@H](N)Cc1ccccc1)C(=O)O [Bestatin]
relative activity [2, 6]: 97.6%

SFRAP-pNA [p-nitroanilide peptide substrate for svPEP]
relative activity (specificity of svPEP for peptide substrate) [1]: 1.23%

Suc-AAPF-pNA [p-nitroanilide peptide substrate for svPEP]
relative activity (specificity of svPEP for peptide substrate) [1]: 0.01%

PSFRAP-pNA [p-nitroanilide peptide substrate for svPEP]
relative activity (specificity of svPEP for peptide substrate) [1]: 0.2%

NC(=O)CI [Iodoacetamide]
relative activity [2]: 87%

p-pNA
relative activity (specificity of svPEP for peptide substrate) [1]: 0.04%

Z-AGP-βNA ({code Z}-Ala-Gly-Pro-βNA; reading uncertain; also: printed as Z-AGP-βNA) [β-naphtylamido peptide substrate for svPEP]
relative activity (specificity of svPEP for peptide substrate) [1]: 0.78%

O[C@H](CS)[C@H](O)CS (racemic) [Dithiothreitol]
relative activity [2, 7]: 102.5%

AAA-pNA
relative activity (specificity of svPEP for peptide substrate) [1]: 8.5%

AAF-pNA (Ala-Ala-Phe-pNA) [p-nitroanilide peptide substrate for svPEP]
relative activity (specificity of svPEP for peptide substrate) [1]: 4.1%

CC(C)C[C@H](NC(=O)[C@@H](NC(=O)N[C@@H](Cc1ccccc1)C(=O)O)[C@@H]1CCN=C(N)N1)C(=O)N[C@H](C=O)Cc1ccccc1 [Chymostatin]
relative activity [2]: 84.9%

CCN1C(=O)C=CC1=O [N-Ethylmaleimide]
relative activity [2, 6]: 98.3%

AAPL-pNA [p-nitroanilide peptide substrate for svPEP]
relative activity (specificity of svPEP for peptide substrate) [1]: 0.3%

Bz-Phe-Val-Arg-pNA ({Bz′}-Phe-Val-Arg-pNA) [Bz-FVR-pNA, p-nitroanilide peptide substrate]
relative activity (specificity of svPEP for peptide substrate) [1]: 0.002%

B1: transglutaminase: S. mobaraense transglutaminase secreto-produced as pro-form in C. glutamicum ATCC13869, pro-structure part cleaved by protease (protein)
chain: DSDDRVTPPAEPLDRMPDPYRPSYGRAETVVNNYIRKWQQVYSHRDGRKQQMTEEQREWLSYGCVGVTWVNSGQYPTNRLAFASFDEDRFKNELKNGRPRSGETRAEFEGRVAKESFDEEKGFQRAREVASVMNRALENAHDESAYLDNLKKELANGNDALRNEDARSPFYSALRNTPSFKERNGGNHDPSRMKAVIYSKHFWSGQDRSSSADKRKYGDPDAFRPAPGTGLVDMSRDRNIPRSPTSPGEGFVNFDYGWFGAQTEADADKTVWTHGNHYHAPNGSLGAMHVYESKFRNWSEGYSDFDRGAYVITFIPKSWNTAPDKVKQGWP
modifications: Streptoverticillium mobaraense
notes: S. mobaraense transglutaminase secreto-produced as pro-form in C. glutamicum ATCC13869, pro-structure part cleaved by protease
specific activity ([3]; after Dispase digestion (37° C., pH 7.5, 1 hour) of culture supernatant of C. glutamicum ATCC13869 harboring pVKPTG1-4 or pPKPTG1-4): about 20 U/mg
specific activity ([3]; after Dispase digestion (37° C., pH 7.5, 1 hour) of culture supernatant of C. glutamicum harboring pVKSPTG1, pVTSPTG1, pPKSPTG1 or pPTSPTG1): about 20 U/mg
specific activity ([3]; culture supernatant of C. glutamicum harboring pVSS1 (SAMP45) and pPKSPTG1, Phe-Arg-Ala-Pro added at N-terminal): about 20 U/mg
specific activity ([3]; culture supernatant of C. glutamicum harboring pVSS1 and pPKSPTG11 or pPKSPTG12): about 20 U/mg
specific activity ([3]; culture supernatant of C. glutamicum harboring pVSSSP1 (SAMP45 and svPEP) and pPKSPTG1): about 20 U/mg
specific activity ([3]; pro-structure cleaved with culture medium of S. mobaraense IFO13819, 30° C., 6 hours): about 20 U/mg
specific activity ([3]; pro-structure cleaved with washed cells of S. mobaraense, 30° C., 6 hours): about 20 U/mg

B2: svPEP: proline-specific peptidase produced by S. mobaraense IFO13819; mature sequence SEQ ID NO:40 (protein)
chain: QADIKDRILKIPGMKFVEEKPYQGYRYLVMTYRQPVDHRNPGKGTFEQRFTLLHKDTDRPTVFFTSGYNVSTNPSRSEPTRIVDGNQVSMEYRFFTPSRPQPADWSKLDIWQAASDQHRLYQALKPVYGKNWLATGGSKGGMTATYFRRFYPNDMNGTVAYVAPNDVNDKEDSAYDKFFQNVGDKACRTQLNSVQREALVRRDEIVARYEKWAKENGKTFKVVGSADKAYENVVLDLVWSFWQYHLQSDCASVPATKASTDELYKFIDDISGFDGYTDQGLERFTPYYYQAGTQLGAPTVKNPHLKGVLRYPGINQPRSYVPRDIPMTFRPGAMADVDRWVREDSRNMLFVYGQNDPWSGEPFRLGKGAAARHDYRFYAPGGNHGSNIAQLVADERAKATAEVLKWAGVAPQAVQKDEKAAKPLAPFDAKLDRVKNDKQSALRP
modifications: Streptoverticillium mobaraense
optimum pH ([4]; Ala-Ala-Pro-pNA, 30° C., 5 min): 6.0-6.5
pH stability (stable at pH) ([4]; overnight at 4° C. in 0.15 M GTA buffers pH 3 to 10): 4-9
optimum temperature ([4]; pH 6.5, 20° C.-60° C., 5 min): 25-30 °C
temperature stability (stable below) ([4]; pH 6.5, 15 min at 4° C. or 20° C.-60° C.): below 20 °C
isoelectric point [5]: 10.2
